Assays:
Format in all cases: binding
TREM2 D104A (hTREM2) = target: T1, TREM2 D104A (hTREM2) (Homo sapiens, UniProt Q9NZC2, D104A); test: microscale thermophoresis with labelled TREM2 D104A
T1 sequence (Q9NZC2 19-174 D104A limits assumed): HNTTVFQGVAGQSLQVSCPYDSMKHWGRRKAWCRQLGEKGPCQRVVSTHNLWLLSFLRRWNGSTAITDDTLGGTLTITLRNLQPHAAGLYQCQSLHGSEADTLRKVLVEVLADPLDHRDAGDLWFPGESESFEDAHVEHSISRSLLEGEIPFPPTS

rat TREM2 (rTREM2) = target: T2, rat TREM2 (rTREM2) (Rattus norvegicus, UniProt A0A6G8MV71); test: microscale thermophoresis with labelled recombinant TREM2
T2 sequence (A0A6G8MV71 19-229): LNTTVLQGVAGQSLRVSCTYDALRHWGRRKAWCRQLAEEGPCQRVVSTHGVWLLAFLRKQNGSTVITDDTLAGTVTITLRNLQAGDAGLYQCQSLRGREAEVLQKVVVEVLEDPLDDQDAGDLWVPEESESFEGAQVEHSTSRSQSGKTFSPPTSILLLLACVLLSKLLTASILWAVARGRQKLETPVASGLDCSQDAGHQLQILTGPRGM

APOE (apolipoprotein E) = APOE (apolipoprotein E) (Homo sapiens, UniProt P02649); test: microscale thermophoresis with labelled recombinant APOE
human TREM2 (hTREM2) [1] = target: T3, human TREM2 (hTREM2) (Homo sapiens, UniProt Q9NZC2); test: microscale thermophoresis
T3 sequence (Q9NZC2 19-230): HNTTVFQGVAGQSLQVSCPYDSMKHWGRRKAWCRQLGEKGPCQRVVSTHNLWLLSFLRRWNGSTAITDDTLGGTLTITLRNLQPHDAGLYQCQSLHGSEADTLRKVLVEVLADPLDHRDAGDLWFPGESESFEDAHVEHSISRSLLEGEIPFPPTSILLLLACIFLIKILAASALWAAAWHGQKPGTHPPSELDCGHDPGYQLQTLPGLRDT

mouse TREM2 (mTREM2) [2] = target: T4, mouse TREM2 (mTREM2) (Mus musculus, UniProt Q99NH8); test: microscale thermophoresis
T4 sequence (Q99NH8 19-227): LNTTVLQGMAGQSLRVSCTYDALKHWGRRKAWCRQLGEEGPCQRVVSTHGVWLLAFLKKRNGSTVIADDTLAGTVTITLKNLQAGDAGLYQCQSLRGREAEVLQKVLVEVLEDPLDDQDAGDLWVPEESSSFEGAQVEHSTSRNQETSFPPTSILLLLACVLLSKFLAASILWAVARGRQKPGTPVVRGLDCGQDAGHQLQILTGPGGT

human TREM2 (hTREM2) [3] = target: T3, human TREM2 (hTREM2); test: microscale thermophoresis with labelled recombinant TREM2
mouse TREM2 (mTREM2) [4] = target: T4, mouse TREM2 (mTREM2); test: as above

Sequence of APOE (apolipoprotein E) (P02649 19-317): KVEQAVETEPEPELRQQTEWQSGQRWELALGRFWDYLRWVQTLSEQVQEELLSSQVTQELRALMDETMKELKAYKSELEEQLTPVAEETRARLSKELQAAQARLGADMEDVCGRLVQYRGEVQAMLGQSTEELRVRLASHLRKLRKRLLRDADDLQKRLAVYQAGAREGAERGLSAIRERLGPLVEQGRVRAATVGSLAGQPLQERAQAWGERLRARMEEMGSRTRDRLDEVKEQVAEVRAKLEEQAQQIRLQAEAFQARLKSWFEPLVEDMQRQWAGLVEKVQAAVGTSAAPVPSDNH

Question: With `CCCCCCCCCCCCC/C=C/[C@@H](O)[C@@H](N)COP(=O)(O)O` [S1P] as the molecule, how does the Kd (TREM2 D104A (hTREM2)) read?
Answer: Its Kd is 593 ± 97.6 µM.

Question: What about the Kd (rat TREM2 (rTREM2)) of the same molecule?
Answer: The Kd was 56.8 ± 14 µM.

Question: What about the Kd (APOE (apolipoprotein E)) of the same molecule?
Answer: Its Kd is 6.64 ± 1.68 µM.

Question: And the Kd (human TREM2 (hTREM2) [1])?
Answer: Its Kd is 62.6 ± 11.9 µM.

Question: And the Kd (mouse TREM2 (mTREM2) [2])?
Answer: The Kd was 64.6 ± 16.6 µM.

Question: Which Kd (rat TREM2 (rTREM2)) does the source give for `CCCCCCCCc1ccc(CC[C@](N)(CO)COP(=O)(O)O)cc1` [FTY720P] here?
Answer: Its Kd is 7.17 ± 2.21 µM.

Question: And the Kd (APOE (apolipoprotein E))?
Answer: The Kd was 15.9 ± 7.41 µM.

Question: What about the Kd (human TREM2 (hTREM2) [3]) of the same molecule?
Answer: Its Kd is 6.75 ± 1.8 µM.

Question: What about the Kd (mouse TREM2 (mTREM2) [4]) of the same molecule?
Answer: Its Kd is 72.6 ± 21 µM.

Reference: paper PMC9279640 (Acta Pharmaceutica Sinica. B, 2021)
